How the values were obtained:
Assay type in all cases: functional
SF-268 = assay: Cytotoxicity against human SF268 cells assessed as cellular growth at 0.1 uM after 48 hrs by SRB assay relative to control
COLO 205 = assay: Cytotoxicity against human COLO205 cells assessed as cellular growth at 0.01 uM after 48 hrs by SRB assay relative to control
LOX IMVI = assay: Cytotoxicity against human LOXIMVI cells assessed as cellular growth at 1 uM after 48 hrs by SRB assay relative to control
NCI-H460 = assay: Cytotoxicity against human NCI-H460 cells assessed as cellular growth at 0.1 uM after 48 hrs by SRB assay relative to control
SN12C [1] = assay: Cytotoxicity against human SN12C cells assessed as cellular growth at 1 uM after 48 hrs by SRB assay relative to control
NCI-H23 [2] = assay: Cytotoxicity against human NCI-H23 cells assessed as cellular growth at 0.1 uM after 48 hrs by SRB assay relative to control
SK-MEL-28 [3] = assay: Cytotoxicity against human SK-MEL-28 cells assessed as cellular growth at 10 uM after 48 hrs by SRB assay relative to control
DU-145 [4] = assay: Cytotoxicity against human DU145 cells assessed as cellular growth at 0.01 uM after 48 hrs by SRB assay relative to control
UACC-62 = assay: Cytotoxicity against human UACC62 cells assessed as cellular growth at 0.1 uM after 48 hrs by SRB assay relative to control
SK-OV-3 = assay: Cytotoxicity against human SKOV3 cells assessed as cellular growth at 1 uM after 48 hrs by SRB assay relative to control
NCI-H23 [5] = assay: Cytotoxicity against human NCI-H23 cells after 48 hrs by SRB assay; conditions: NCI-H23, 48 h
DU-145 [6] = assay: Cytotoxicity against human DU145 cells assessed as cellular growth at 1 uM after 48 hrs by SRB assay relative to control
IGROV-1 = assay: Cytotoxicity against human IGROV1 cells after 48 hrs by SRB assay; conditions: IGROV-1, 48 h
A498 = assay: Cytotoxicity against human A498 cells assessed as cellular growth at 100 uM after 48 hrs by SRB assay relative to control
SK-MEL-28 [7] = assay: Cytotoxicity against human SK-MEL-28 cells assessed as cellular growth at 0.01 uM after 48 hrs by SRB assay relative to control
OVCAR-3 [8] = assay: Cytotoxicity against human OVCAR3 cells after 48 hrs by SRB assay; conditions: OVCAR-3, 48 h
SK-MEL-28 [9] = assay: Cytotoxicity against human SK-MEL-28 cells assessed as cellular growth at 100 uM after 48 hrs by SRB assay relative to control
SN12C [10] = assay: Cytotoxicity against human SN12C cells assessed as cellular growth at 100 uM after 48 hrs by SRB assay relative to control
SNB-19 [11] = assay: Cytotoxicity against human SNB19 cells assessed as cellular growth at 0.1 uM after 48 hrs by SRB assay relative to control
Malme-3M = assay: Cytotoxicity against human MALME-3M cells assessed as cellular growth at 1 uM after 48 hrs by SRB assay relative to control
UO-31 = assay: Cytotoxicity against human UO31 cells assessed as cellular growth at 100 uM after 48 hrs by SRB assay relative to control
NCI-H322M = assay: Cytotoxicity against human NCI-H322M cells assessed as cellular growth at 0.01 uM after 48 hrs by SRB assay relative to control
M14 = assay: Cytotoxicity against human M14 cells assessed as cellular growth at 100 uM after 48 hrs by SRB assay relative to control
BT-549 = assay: Cytotoxicity against human BT549 cells assessed as cellular growth at 100 uM after 48 hrs by SRB assay relative to control
HCT-116 = assay: Cytotoxicity against human HCT116 cells assessed as cellular growth at 100 uM after 48 hrs by SRB assay relative to control
SF-295 = assay: Cytotoxicity against human SF295 cells assessed as cellular growth at 0.1 uM after 48 hrs by SRB assay relative to control
OVCAR-8 = assay: Cytotoxicity against human OVCAR8 cells assessed as cellular growth at 0.1 uM after 48 hrs by SRB assay relative to control
SNB-19 [12] = assay: Cytotoxicity against human SNB19 cells assessed as cellular growth at 1 uM after 48 hrs by SRB assay relative to control
NCI-H522 = assay: Cytotoxicity against human NCI-H522 cells assessed as cellular growth at 0.1 uM after 48 hrs by SRB assay relative to control
MDA-MB-231 [13] = assay: Cytotoxicity against human MDA-MB-231 cells assessed as cellular growth at 0.01 uM after 48 hrs by SRB assay relative to control
OVCAR-3 [14] = assay: Cytotoxicity against human OVCAR3 cells assessed as cellular growth at 0.1 uM after 48 hrs by SRB assay relative to control
RXF 393 = assay: Cytotoxicity against human RXF393 cells assessed as cellular growth at 100 uM after 48 hrs by SRB assay relative to control
MDA-MB-231 [15] = assay: Cytotoxicity against human MDA-MB-231 cells assessed as cellular growth at 0.1 uM after 48 hrs by SRB assay relative to control
[16] = Cytotoxicity against human NCI-ADR-RES cells assessed as cellular growth at 100 uM after 48 hrs by SRB assay relative to control
A549 = assay: Cytotoxicity against human A549 cells after 48 hrs by SRB assay; conditions: A549, 48 h
T47D = assay: Cytotoxicity against human T47D cells assessed as cellular growth at 0.1 uM after 48 hrs by SRB assay relative to control
NCI-H226 = assay: Cytotoxicity against human NCI-H226 cells after 48 hrs by SRB assay; conditions: NCI-H226, 48 h
MDA-MB-231 [17] = assay: Cytotoxicity against human MDA-MB-231 cells assessed as cellular growth at 100 uM after 48 hrs by SRB assay relative to control
[18] = read-out: LC50 (the source's name)
[19] = read-out: pLC50 (the source's name) (converted)

For `O=C(CCCn1c2c(sc3ccccc32)c(=O)n2nnc(-c3ccccc3)c12)NCCc1c[nH]cn1`, the Activity (SF-268) was 93%, the Activity (COLO 205) was 87% and the Activity (LOX IMVI) was 82%. The Activity (NCI-H460) was 114%, the Activity (SN12C [1]) was 36% and the Activity (NCI-H23 [2]) was 75%. For the same compound, the Activity (SK-MEL-28 [3]) was -92%, the Activity (DU-145 [4]) was 105% and the Activity (UACC-62) was 96%. The Activity (SK-OV-3) was 84%, the GI50 (NCI-H23 [5]; read-out: GI50) was 1.34 µM and the TGI (NCI-H23 [5]; read-out: TGI) was 3.52 µM. The GI50 (NCI-H23 [5]; read-out: pGI50 (converted)) was 1.35 µM, the TGI (NCI-H23 [5]; read-out: pTGI (converted)) was 3.55 µM and the Activity (DU-145 [6]) was 55%. It also gave a GI50 (IGROV-1; read-out: GI50) of 0.0997 µM, a CC50 (IGROV-1; [18]) of 5.04 µM and a TGI (IGROV-1; read-out: TGI) of 2.07 µM. The GI50 (IGROV-1; read-out: pGI50 (converted)) was 0.1 µM, the CC50 (IGROV-1; [19]) was 5.01 µM and the TGI (IGROV-1; read-out: pTGI (converted)) was 2.09 µM. It also gave an Activity (A498) of -97%, an Activity (SK-MEL-28 [7]) of 117% and a GI50 (OVCAR-3 [8]; read-out: GI50) of 1.66 µM. The CC50 (OVCAR-3 [8]; [18]) was 5.66 µM, the TGI (OVCAR-3 [8]; read-out: TGI) was 3.07 µM and the GI50 (OVCAR-3 [8]; read-out: pGI50 (converted)) was 1.66 µM. It also gave a CC50 (OVCAR-3 [8]; [19]) of 5.62 µM, a TGI (OVCAR-3 [8]; read-out: pTGI (converted)) of 3.09 µM and an Activity (SK-MEL-28 [9]) of -100%. The Activity (SN12C [10]) was -100%, the Activity (SNB-19 [11]) was 65% and the Activity (Malme-3M) was 81%. It also gave an Activity (UO-31) of -61%, an Activity (NCI-H322M) of 104% and an Activity (M14) of -38%. For the same compound, the Activity (BT-549) was -72%, the Activity (HCT-116) was 3% and the Activity (SF-295) was 70%. For the same compound, the Activity (OVCAR-8) was 33%, the Activity (SNB-19 [12]) was 65% and the Activity (NCI-H522) was 42%. For the same compound, the Activity (MDA-MB-231 [13]) was 115%, the Activity (OVCAR-3 [14]) was 107% and the Activity (RXF 393) was -61%. It also gave an Activity (MDA-MB-231 [15]) of 109%, an Activity [16] of 32% and a GI50 (A549; read-out: GI50) of 1.29 µM. The TGI (A549; read-out: TGI) was 3.21 µM, the GI50 (A549; read-out: pGI50 (converted)) was 1.29 µM and the TGI (A549; read-out: pTGI (converted)) was 3.24 µM. For the same compound, the Activity (T47D) was 55%, the GI50 (NCI-H226; read-out: GI50) was 2.75 µM and the CC50 (NCI-H226; [18]) was 41.2 µM. The TGI (NCI-H226; read-out: TGI) was 7.49 µM, the GI50 (NCI-H226; read-out: pGI50 (converted)) was 2.75 µM and the CC50 (NCI-H226; [19]) was 40.7 µM. The TGI (NCI-H226; read-out: pTGI (converted)) was 7.41 µM and the Activity (MDA-MB-231 [17]) was -100%.
In the case of `CN1CCN(CCCn2c3c(sc4ncccc43)c(=O)n3nnc(-c4ccccc4)c23)CC1`, the Activity (SF-268) is reported as 89%, the Activity (COLO 205) is reported as 95% and the Activity (LOX IMVI) is reported as 86%. It also gave an Activity (NCI-H460) of 100%, an Activity (SN12C [1]) of 87% and an Activity (NCI-H23 [2]) of 93%. It also gave an Activity (SK-MEL-28 [3]) of 87%, an Activity (DU-145 [4]) of 97% and an Activity (UACC-62) of 79%. For the same compound, the Activity (SK-OV-3) was 106%, the GI50 (NCI-H23 [5]; read-out: GI50) was 2.14 µM and the CC50 (NCI-H23 [5]; [18]) was 33.7 µM. For the same compound, the TGI (NCI-H23 [5]; read-out: TGI) was 5.07 µM, the GI50 (NCI-H23 [5]; read-out: pGI50 (converted)) was 2.14 µM and the CC50 (NCI-H23 [5]; [19]) was 33.9 µM. For the same compound, the TGI (NCI-H23 [5]; read-out: pTGI (converted)) was 5.13 µM, the Activity (DU-145 [6]) was 95% and the GI50 (IGROV-1; read-out: GI50) was 2 µM. It also gave a CC50 (IGROV-1; [18]) of 9.78 µM, a TGI (IGROV-1; read-out: TGI) of 4.42 µM and a GI50 (IGROV-1; read-out: pGI50 (converted)) of 2 µM. The CC50 (IGROV-1; [19]) was 9.77 µM, the TGI (IGROV-1; read-out: pTGI (converted)) was 4.47 µM and the Activity (A498) was -92%. The Activity (SK-MEL-28 [7]) was 100%, the GI50 (OVCAR-3 [8]; read-out: GI50) was 1.81 µM and the CC50 (OVCAR-3 [8]; [18]) was 6.68 µM. It also gave a TGI (OVCAR-3 [8]; read-out: TGI) of 3.48 µM, a GI50 (OVCAR-3 [8]; read-out: pGI50 (converted)) of 1.82 µM and a CC50 (OVCAR-3 [8]; [19]) of 6.61 µM. For the same compound, the TGI (OVCAR-3 [8]; read-out: pTGI (converted)) was 3.47 µM, the Activity (SK-MEL-28 [9]) was -97% and the Activity (SN12C [10]) was -47%. For the same compound, the Activity (SNB-19 [11]) was 96%, the Activity (Malme-3M) was 105% and the Activity (UO-31) was -87%. It also gave an Activity (NCI-H322M) of 97%, an Activity (M14) of -67% and an Activity (BT-549) of -81%. It also gave an Activity (HCT-116) of -64%, an Activity (SF-295) of 94% and an Activity (OVCAR-8) of 94%. For the same compound, the Activity (SNB-19 [12]) was 107%, the Activity (NCI-H522) was 97% and the Activity (MDA-MB-231 [13]) was 100%. The Activity (OVCAR-3 [14]) was 95%, the Activity (RXF 393) was -83% and the Activity (MDA-MB-231 [15]) was 100%. It also gave an Activity [16] of -62%, a GI50 (A549; read-out: GI50) of 1.79 µM and a TGI (A549; read-out: TGI) of 3.4 µM. For the same compound, the GI50 (A549; read-out: pGI50 (converted)) was 1.78 µM, the TGI (A549; read-out: pTGI (converted)) was 3.39 µM and the Activity (T47D) was 100%. For the same compound, the GI50 (NCI-H226; read-out: GI50) was 13.9 µM, the CC50 (NCI-H226; [18]) was 64.2 µM and the TGI (NCI-H226; read-out: TGI) was 29.8 µM. The GI50 (NCI-H226; read-out: pGI50 (converted)) was 13.8 µM, the CC50 (NCI-H226; [19]) was 64.6 µM and the TGI (NCI-H226; read-out: pTGI (converted)) was 29.5 µM. It also gave an Activity (MDA-MB-231 [17]) of -42%.

— ChEMBL document CHEMBL2401728, “An unexpected Dimroth rearrangement leading to annelated thieno[3,2-d][1,2,3]triazolo[1,5-a]pyrimidines with potent antitumor activity” (Eur J Med Chem, 2013)
